Data reported in patent US20190328691A1, “ANTIBIOTIC THERAPY” (Boulos & Cooper Pharmaceuticals Pty Ltd, priority 2015, published 2019).
Where “and” joins values, the source holds several entries; their conditions need not be identical. Identical values can stand only once. Like-named read-outs stand apart in the source and are kept apart here.

Assays:
[1] = tested on: Staphylococcus aureus (BAA-1717); assay: Checkerboard combination / MIC assay with S. aureus BAA-1717 (MRSA); format: cell-based
Experimental: (§1) Colonies were suspended in PBS. The absorbance of each suspension was measured with a spectrophotometer, and then the suspension was adjusted to 1×10^6 CFU/mL. The testing inoculum was prepared within 20 minutes before adding to wells of the test plate. Final cellular density in the checkerboard assays was 5×10^5 CFU/mL.
(§2) The combination effect of antibacterial substances administered together was evaluated by an in vitro checkerboard combination method with Staphylococcus aureus (ATCC 29213) and Staphylococcus aureus (BAA-1717). Ramizol and Chlopam were tested alone in 11 points by two-fold serial titration and in combination with different commercial antibiotics which were tested in a 7-point titration alone and in combination with Ramizol and Chlopam using the checkerboard technique as recommended by the Clinical & Laboratory Standards Institute (CLSI. Methods for Dilution In Antimicrobial Susceptibility Tests for Bacteria That Grow Aerobically; Approved Standard-Eighth Edition. CLSI document M07-A8 (ISBN 1-56238-689-1). Vol. 29 No. 2. Clinical and Laboratory Standards Institute, USA, 2009). The commercial antibiotics were also tested alone. Twenty-four checkerboard tests were performed.
(§3) The starting concentration of Ramizol, Chlopam, and the commercial antibiotics was four fold of the MIC. The testing range for each combination was described in the following summary tables.
(§4) Compound dilutions of Ramizol and Chlopam were performed in 100% DMSO and the final DMSO concentration in all test wells was 2%. Growth control wells also included 2% DMSO. CLSI protocol was followed for medium, inoculum preparation, and endpoint reading. The commercial antibiotics were dissolved and diluted in the CLSI specified diluent. The final inoculum count for each strain was 5×10^5 CFU/mL.
Each test substance was dissolved and diluted in 100% DMSO or specified solvent. Each test substance dilution (2 μL) was added to 96 μL broth CAMHB. CAMHB seeded with S. aureus BAA-1717 at 1×10^6 CFU/mL (100 μL) was then added to the plate to generate a final cell count at 5×10^5 CFU/mL.
(§5) Assay plates were incubated and MIC endpoints were read as described in the MIC assay. FIC (Fraction Inhibitory Concentration) and FIC Index (FICI) values for each test condition and the average of FICI values of all pairwise combinations were calculated to determine if synergy or antagonism existed between the two substances. The FIC index was determined by calculating the sum of the ratios of MICs for both substances. Arithmetically, the FIC Index of a combination of Substance 1 and Substance 2 was defined as following: FICI=Σ[FIC(Substance 1)+FIC(Substance 2)]=[(MIC of Substance 1 in combination/MIC of Substance 1 alone)+(MIC of Substance 2 in combination/MIC of Substance 2 alone)]. Synergy is defined as the FICI (Σ)≤0.5; additivity as FICI (Σ)>0.5 to ≤1; indifference as FICI (Σ)>1 to ≤4; antagonism is defined as the FICI (Σ)>4 (Zinner and Blaser, J. Journal of Antimicrobial Chemotherapy (1986), 17, 1-5; Amin, et al BMC Complementary & Alternative Medicine (2015), 15, 59; Zuo, et al. Molecules (2011), 16, 9819-9826).

[2] = tested on: Staphylococcus aureus (ATCC 29213); assay: Checkerboard combination / MIC assay with S. aureus ATCC 29213; format: cell-based; details: S. aureus ATCC 29213; for MIC: Staphylococcus aureus, read-out: MIC of antibiotic alone
Experimental: as §1, §2, §3, §4
Cefepime, Daptomycin, Linezolid, Mupirocin, Oxacillin and Vancomycin were also tested alone. Each test substance was dissolved and diluted in 100% DMSO or specified solvent. Each test substance dilution (2 μL) was added to 96 μL broth CAMHB. CAMHB seeded with S. aureus ATCC 29213 at 1×10^6 CFU/mL (100 μL) was then added to the plate to generate a final cell count at 5×10^5 CFU/mL.
as §5

Compound: CO/N=C(\C(=O)N[C@@H]1C(=O)N2C(C(=O)[O-])=C(C[N+]3(C)CCCC3)CS[C@H]12)c1csc(N)n1 [Cefepime]
- FICI of combination with Chlopam ([1]; Chlopam 0.001953 μg/mL + labelled antibiotic at MIC of same cell, S. aureus ATCC BAA-1717): 1.0
- MIC of antibiotic in combination with Chlopam ([1]; Chlopam 0.001953 μg/mL, S. aureus ATCC BAA-1717): 256 µg/mL
- FICI of combination with Chlopam ([1]; Chlopam 0.003906 μg/mL + labelled antibiotic at MIC of same cell, S. aureus ATCC BAA-1717): 1.0
- MIC of antibiotic in combination with Chlopam ([1]; Chlopam 0.003906 μg/mL, S. aureus ATCC BAA-1717): 256 µg/mL
- FICI of combination with Chlopam ([1]; Chlopam 0.0078125 μg/mL + labelled antibiotic at MIC of same cell, S. aureus ATCC BAA-1717): 1.0
- MIC of antibiotic in combination with Chlopam ([1]; Chlopam 0.0078125 μg/mL, S. aureus ATCC BAA-1717): 256 µg/mL
- FICI of combination with Chlopam ([1]; Chlopam 0.015625 μg/mL + labelled antibiotic at MIC of same cell, S. aureus ATCC BAA-1717): 1.0
- MIC of antibiotic in combination with Chlopam ([1]; Chlopam 0.015625 μg/mL, S. aureus ATCC BAA-1717): 256 µg/mL
- FICI of combination with Chlopam ([1]; Chlopam 0.03125 μg/mL + labelled antibiotic at MIC of same cell, S. aureus ATCC BAA-1717): 1.0
- MIC of antibiotic in combination with Chlopam ([1]; Chlopam 0.03125 μg/mL, S. aureus ATCC BAA-1717): 256 µg/mL
- FICI of combination with Chlopam ([1]; Chlopam 0.125 μg/mL + labelled antibiotic at MIC of same cell, S. aureus ATCC BAA-1717): 0.6
- MIC of antibiotic in combination with Chlopam ([1]; Chlopam 0.125 μg/mL, S. aureus ATCC BAA-1717): 128 µg/mL
- FICI of combination with Chlopam ([1]; Chlopam 0.5 μg/mL + labelled antibiotic at MIC of same line, S. aureus ATCC BAA-1717): 0.5
- MIC of antibiotic in combination with Chlopam ([1]; Chlopam 0.5 μg/mL, S. aureus ATCC BAA-1717): 8 µg/mL
- Effect of individual antibiotic combinations of lower concentrations ([1]; Chlopam and Cefepime: 0.25 and 64, 0.25 and 32, 0.25 and 16, 0.50 and 8 μg/mL, S. aureus ATCC BAA-1717): synergistic effect
- FICI of combination with Ramizol ([1]; Ramizol 0.015625 μg/mL + labelled antibiotic at MIC of same cell, S. aureus ATCC BAA-1717): 1.0
- MIC of antibiotic in combination with Ramizol ([1]; Ramizol 0.015625 μg/mL, S. aureus ATCC BAA-1717): 256 µg/mL
- FICI of combination with Ramizol ([1]; Ramizol 0.03125 μg/mL + labelled antibiotic at MIC of same cell, S. aureus ATCC BAA-1717): 1.0
- MIC of antibiotic in combination with Ramizol ([1]; Ramizol 0.03125 μg/mL, S. aureus ATCC BAA-1717): 256 µg/mL
- FICI of combination with Ramizol ([1]; Ramizol 0.0625 μg/mL + labelled antibiotic at MIC of same cell, S. aureus ATCC BAA-1717): 1.0
- MIC of antibiotic in combination with Ramizol ([1]; Ramizol 0.0625 μg/mL, S. aureus ATCC BAA-1717): 256 µg/mL
- FICI of combination with Ramizol ([1]; Ramizol 0.125 μg/mL + labelled antibiotic at MIC of same line, S. aureus ATCC BAA-1717): 0.5
- MIC of antibiotic in combination with Ramizol ([1]; Ramizol 0.125 μg/mL, S. aureus ATCC BAA-1717): 128 µg/mL
- FICI of combination with Ramizol ([1]; Ramizol 0.25 μg/mL + labelled antibiotic at MIC of same cell, S. aureus ATCC BAA-1717): 0.6
- MIC of antibiotic in combination with Ramizol ([1]; Ramizol 0.25 μg/mL, S. aureus ATCC BAA-1717): 128 µg/mL
- FICI of combination with Ramizol ([1]; Ramizol 0.5 μg/mL + labelled antibiotic at MIC of same cell, S. aureus ATCC BAA-1717): 0.6
- MIC of antibiotic in combination with Ramizol ([1]; Ramizol 0.5 μg/mL, S. aureus ATCC BAA-1717): 128 µg/mL
- FICI of combination with Ramizol ([1]; Ramizol 1 μg/mL + labelled antibiotic at MIC of same line, S. aureus ATCC BAA-1717): 0.5
- MIC of antibiotic in combination with Ramizol ([1]; Ramizol 1 μg/mL, S. aureus ATCC BAA-1717): 64 µg/mL
- FICI of combination with Ramizol ([1]; Ramizol 2 μg/mL + labelled antibiotic at MIC of same line, S. aureus ATCC BAA-1717): 0.5 and 0.6
- Effect of individual antibiotic combinations of lower concentrations ([1]; Ramizol and Cefepime: 0.125 and 128, 1 and 64, 2 and 8 μg/mL, S. aureus ATCC BAA-1717): synergistic effect
- MIC ([1]; Staphylococcus aureus, ATCC BAA-1717 / BAA-1717, Table 4, checkerboard series with Chlopam, S. aureus ATCC BAA-1717, read-out: MIC of antibiotic alone): 256 µg/mL
- MIC of antibiotic alone ([1]; Table 7, checkerboard series with Ramizol, S. aureus ATCC BAA-1717): 256 µg/mL
- Effect of the combinations with Chlopam (by mean FICI) ([1]; labelled antibiotic + Chlopam, S. aureus BAA-1717): additive effect
- mean FICI of combination with Chlopam ([1]; labelled antibiotic + Chlopam, mean of all pairwise combinations, S. aureus ATCC BAA-1717): 0.8
- Effect of the combinations with Ramizol (by mean FICI) ([1]; labelled antibiotic + Ramizol, S. aureus BAA-1717): additive effect
- mean FICI of combination with Ramizol ([1]; labelled antibiotic + Ramizol, mean of all pairwise combinations, S. aureus ATCC BAA-1717): 0.696
- FICI of combination with Chlopam ([2]; Chlopam 0.003906 μg/mL + labelled antibiotic at MIC of same cell): 1.0
- MIC of antibiotic in combination with Chlopam ([2]; Chlopam 0.003906 μg/mL): 4 µg/mL
- FICI of combination with Chlopam ([2]; Chlopam 0.0078125 μg/mL + labelled antibiotic at MIC of same cell): 1.0
- MIC of antibiotic in combination with Chlopam ([2]; Chlopam 0.0078125 μg/mL): 4 µg/mL
- FICI of combination with Chlopam ([2]; Chlopam 0.015625 μg/mL + labelled antibiotic at MIC of same cell): 1.0
- MIC of antibiotic in combination with Chlopam ([2]; Chlopam 0.015625 μg/mL): 4 µg/mL
- FICI of combination with Chlopam ([2]; Chlopam 0.25 μg/mL + labelled antibiotic at MIC of same cell): 1.0
- MIC of antibiotic in combination with Chlopam ([2]; Chlopam 0.25 μg/mL): 2 µg/mL
- FICI of combination with Chlopam ([2]; Chlopam 0.5 μg/mL + labelled antibiotic at MIC of same cell): 1.0
- MIC of antibiotic in combination with Chlopam ([2]; Chlopam 0.5 μg/mL): 0.125 µg/mL
- FICI of combination with Ramizol ([2]; Ramizol 0.015625 μg/mL + labelled antibiotic at MIC of same cell): 1.0
- MIC of antibiotic in combination with Ramizol ([2]; Ramizol 0.015625 μg/mL): 4 µg/mL
- FICI of combination with Ramizol ([2]; Ramizol 0.03125 μg/mL + labelled antibiotic at MIC of same cell): 1.0
- MIC of antibiotic in combination with Ramizol ([2]; Ramizol 0.03125 μg/mL): 4 µg/mL
- FICI of combination with Ramizol ([2]; Ramizol 0.0625 μg/mL + labelled antibiotic at MIC of same cell): 1.0
- MIC of antibiotic in combination with Ramizol ([2]; Ramizol 0.0625 μg/mL): 4 µg/mL
- FICI of combination with Ramizol ([2]; Ramizol 0.125 μg/mL + labelled antibiotic at MIC of same cell): 1.0
- MIC of antibiotic in combination with Ramizol ([2]; Ramizol 0.125 μg/mL): 4 µg/mL
- FICI of combination with Ramizol ([2]; Ramizol 1 μg/mL + labelled antibiotic at MIC of same cell): 0.8
- MIC of antibiotic in combination with Ramizol ([2]; Ramizol 1 μg/mL): 2 µg/mL
- FICI of combination with Ramizol ([2]; Ramizol 2 μg/mL + labelled antibiotic at MIC of same cell): 0.8
- MIC of antibiotic in combination with Ramizol ([2]; Ramizol 2 μg/mL): 1 µg/mL
- FICI of combination with Ramizol ([2]; Ramizol 4 μg/mL + labelled antibiotic at MIC of same cell): 1.0
- MIC of antibiotic in combination with Ramizol ([2]; Ramizol 4 μg/mL): 0.125 µg/mL
- MIC ([2]; ATCC29213, Table 4, checkerboard series with Chlopam): 4 µg/mL
- MIC ([2]; ATCC29213, Table 7, checkerboard series with Ramizol): 4 µg/mL
- mean FICI of combination with Chlopam ([2]; labelled antibiotic + Chlopam, mean of all pairwise combinations): 1.1
- Effect of the combinations with Ramizol (by mean FICI) ([2]; labelled antibiotic + Ramizol): additive effect
- mean FICI of combination with Ramizol ([2]; labelled antibiotic + Ramizol, mean of all pairwise combinations): 1.0
